{"source": "patent EP0722725A1", "about": "“VASCULAR SMOOTH MUSCLE CELL MIGRATION INHIBITOR” (TEIJIN LIMITED, priority 1994, dated 1996)", "key": {"[1]": {"system": "vascular smooth muscle cell derived from a human normal aorta", "experiment": "Measurement of the inhibition activity on cell migration (PDGF-mediated, Transwell Chamber)", "assay_type": "cell-based", "settings": "concentration of 10^-7M; migration mediated by human PDGF 10 ng/ml, 6 hours; compared with the cell migration counts where no test compound was added; read-out: inhibition activities on cell migration", "experimental": "A Transwell Chamber (Costar Co., registered trademark) was used to measure the inhibitory activity. The chamber is divided into a lower and a upper chamber with an 8-µm pore size membrane filter (PVP-free polycarbonate filter, Nucleopore Co., registered trademark), and the filter was pretreated on its lower surface with 5 µg of rat tail collagen type 1 (Becton Dickinson Co.). To the upper chamber was added 100 µl of a 1.5 x 10^6/ml suspension of cells in a mixed solution of DMEM (supplied by Flow Laboratories Co.) and 0.1% BSA (supplied by Nakarai Tesque Co.), and a solution of human PDGF (supplied by Becton Dickinson Co.), which is prepared by diluting with the same mixed solution to giving the final concentration of 10 ng/ml, is filled in the lower chamber (600 µl). […] After the chamber was allowed to stand under 5%-CO2 atmosphere at 37°C For 6 hours, the filter was taken out. […] After cells adhered on the upper surface of the filter were removed with a cotton swab, the cells migrated to the lower surface were counted under a high-magnifying-power microscope (x200, x400) in terms of cell nuclei. Usually, five fields were counted per filter. Cell migration was expressed by the average cell count of the five fields ± the standard deviation. The significant difference was examined by Student's two-tailed t-test."}, "Acute toxicity": {"experiment": "Acute toxicity", "assay_type": "in vivo", "settings": "no method, species or dose given"}}, "data": [{"smiles": "CCCC[C@H](C)C[C@H](O)/C=C/[C@@H]1[C@H]2CC(CCc3ccc(C(=O)OC)cc3)=C[C@H]2C[C@H]1O", "note": "[compound 5e]", "values": [{"measurement": "inhibition at 0.1 µM", "setting": "[1]", "result": 13.9, "unit": "%"}, {"measurement": "acute toxicity", "setting": "Acute toxicity", "result": "neither of the compounds 5e and 6b had problem with acute toxicity"}]}]}
